{"source": "patent US20240307414A1", "about": "“METHODS AND MATERIALS FOR TREATING PROSTATE CANCER” (Mayo Foundation for Medical Education and Research, priority 2020, published 2024)", "key": {"[1]": {"system": "22Rv1 parental and 22Rv1-AbiRes cells", "experiment": "Cytotoxicity and proliferation assay (Cyquant direct assay), 22Rv1 parental and AbiRes", "assay_type": "cell-based, human", "conditions": "single treatment preliminary experiments, concentration used in combination with Abi (FIG. 6A), read-out: Concentrations corresponding to IC50 of each drug", "description": "(§1) 22Rv1 and LNCaP cells purchased from ATCC were routinely cultured in RPMI1640 medium (Gibco, Grand Island, NY) supplemented with 10% FBS (Atlanta Biologicals, Flowery Branch, GA) and 1% Pen-Strep. […] Abi resistant cells (LNCaP-AbiRes or 22Rv1-AbiRes) were compared with parental cells for viability and gene expression after Abi and other treatments.\n(§2) Forty eight hours before abiraterone treatment, cell was seeded in phenol red-free RPMI (Gibco, Grand Island, NY) supplemented with 10% charcoal stripped FBS (Thermo Fisher Scientific, Waltham, MA), and 50 nM pregnenolone was added after 24 hours."}, "[2]": {"system": "LNCaP parental and LNCaP-AbiRes cells", "experiment": "Cytotoxicity and proliferation assay (Cyquant direct assay), LNCaP parental and AbiRes", "assay_type": "cell-based, human", "conditions": "for IC50: LNCaP, single treatment preliminary experiments, concentration used in combination with Abi (FIG. 6B), except PD-0325901, read-out: Concentrations corresponding to IC50 of each drug", "description": "as §1, §2"}, "[3]": {"system": "11 genes (CCNA2, CCNB1, CCNB2, PRC1, SMC2, DLGAP5, ECT2, FBXO5, CDK1, NCAPG, KIF4A)", "experiment": "qRT-PCR of the 11 genes in cell lines and PDX organoids after drug treatment", "assay_type": "cell-based, human", "conditions": "for expression of the 11 genes (qRT-PCR): 22Rv1 and LNCaP parental/AbiRes cells, organoids MC-PRX-01 and MC-PRX-05, alone or with Abi", "description": "Total RNA for qRT-PCR was extracted from tumor organoids or cell lines using Quick-RNA MiniPrep Kit (Zymo Research, Irvine, CA) according to the manufacturer's instructions. qRT-PCR was performed using the Power SYBR® Green RNA-to-CT 1-Step Kit (Life Technologies, Grand Island, NY) and QuantiTect® (QIAGEN, Germantown, MD) or PrimeTime® (IDT, Inc., Coralville, Iowa) pre-designed qPCR primers (IDT Coralville, IA). Gene expression analyses were performed using ΔΔCt method, and β-actin was used as the internal reference. Three independent experiments were performed. Primer sequences are in Table 1."}, "[4]": {"system": "MC-PRX-01 PDX tumor", "experiment": "MC-PRX-01 PDX model treated with abiraterone ± palbociclib/PHA-793887, 35 days", "assay_type": "in vivo, mice", "description": "All patient specimens were collected as part of the PROMOTE study as described elsewhere (see, for example, Champoux. Annu. Rev. Biochem., 70, 369-413 (2001); and Kellner et al., Lancet Oncol., 3, 235-243 (2002)). Briefly, pathology confirmed metastatic tumor biopsy tissues of mCRPC was renal capsule xenografted and 25 mg testosterone pellet was subcutaneously implanted into 6-8 weeks old male CB17 NOD-SCID mice (Jackson laboratories, Bar Harbor, Maine; Charles River Laboratories, Raleigh, North Carolina) and observed for at least 6 months or till the tumor reached 1.0-1.5 cm at maximal length, when sub-xenografts were expanded by subcutaneous implantation with harvested PDX tumor mixed with Matrigel (Corning, Corning, New York) with no exogenous testosterone supplied. Early generation PDX tumors were collected for cryo-storage and next-generation sequencing. Pathology confirmed PDX model generated from AA/P non-responder bone metastatic tumor biopsy tissues were employed to test the in vivo tumor response to abiraterone+Mito/Dox/Palb/PHA. After PDX tumor reached approximately 100 mm3, mice were randomized to 6 groups. […] Body weight and tumor volumes (width^2×length/2) were measured two to three times per week with a digital caliper, and the average tumor volumes were determined. At the end of the treatment period, mice were euthanized and the tumors were removed, dissected and frozen at −80° C. for further analysis."}, "[5]": {"system": "metastatic / castration-resistant prostate cancer", "conditions": "patients, literature; cited from earlier work"}, "[6]": {"system": "11 genes in MC-PRX-01 and MC-PRX-06 PDX tumors", "experiment": "qRT-PCR of the 11 genes in post treatment PDX tumors", "assay_type": "in vivo, mice", "conditions": "MC-PRX-01 and MC-PRX-06 tumors harvested after treatment"}, "[7]": {"system": "PDX organoids MC-PRX-01 and MC-PRX-05", "experiment": "PDX derived organoid culture and cytotoxicity assay (3D cell titer)"}}, "note": "Entries after “also recorded” stand apart in the source; their conditions may differ. Like-named read-outs stand apart in the source and are kept apart here."}
{"molecule": "CC(C)CC(=O)Nc1n[nH]c2c1CN(C(=O)C1CCN(C)CC1)C2(C)C", "note": "[PHA-793887]", "values": [{"measurement": "IC50", "setting": "[1]", "value": 100, "unit": "nM"}, {"measurement": "IC50", "setting": "[2]", "value": 100, "unit": "nM"}, {"measurement": "expression of the 11 genes (qRT-PCR)", "setting": "[3]", "value": "less consistency in the suppression"}, {"measurement": "tumor growth", "setting": "[4]; 35 days", "value": "inhibited tumor growth"}, {"measurement": "tumor growth inhibition as single treatment", "setting": "[4]; 35 days, tested dosage", "value": "did not exhibit statistically significant inhibition"}, {"measurement": "sensitization of the tumor to Abi treatment", "setting": "[4]; combination with Abi", "value": "sensitize the tumor to Abi treatment"}]}
{"molecule": "CC(=O)O[C@H]1CC[C@@]2(C)C(=CC[C@@H]3[C@@H]2CC[C@]2(C)C(c4cccnc4)=CC[C@@H]32)C1", "note": "[abiraterone acetate]", "values": [{"measurement": "overall survival", "setting": "[5]", "value": "extend overall survival significantly"}]}
{"molecule": "O=C(NOC[C@H](O)CO)c1ccc(F)c(F)c1Nc1ccc(I)cc1F", "note": "[PD-0325901, mirdametinib]", "values": [{"measurement": "response of LNCaP cells to the MEK inhibitor", "setting": "[2]; LNCaP harbors a Q56P mutation", "value": "conferring resistance to this MEK inhibitor"}, {"measurement": "expression of the 11 genes (qRT-PCR)", "setting": "[3]", "value": "less consistency in the suppression"}]}
{"molecule": "COc1cccc2c1C(=O)c1c(O)c3c(c(O)c1C2=O)C[C@@](O)(C(=O)CO)C[C@@H]3O[C@H]1C[C@H](N)[C@H](O)[C@H](C)O1", "note": "[doxorubicin]", "values": [{"measurement": "expression of the 11 genes in PDX tumors after treatment (qRT-PCR)", "setting": "[6]", "value": "significantly downregulated"}]}
{"molecule": "C[C@]12CC[C@H](O)CC1=CC[C@@H]1[C@@H]2CC[C@]2(C)C(c3cccnc3)=CC[C@@H]12", "note": "[abiraterone]", "values": [{"measurement": "inhibition of organoid growth", "setting": "[7]; abiraterone alone at the highest tested concentration, MC-PRX-01 and MC-PRX-05 organoids", "value": "less than 10%"}]}
{"molecule": "O=C1c2c(O)ccc(O)c2C(=O)c2c(NCCNCCO)ccc(NCCNCCO)c21", "note": "[mitoxantrone]", "values": [{"measurement": "IC50", "setting": "[2]; Homo sapiens", "value": 10, "unit": "nM"}, {"measurement": "expression of the 11 genes (qRT-PCR)", "setting": "[3]", "value": "most consistently suppressed the expression of the 11 genes; also recorded: more significant effects on the 11 gene suppression"}, {"measurement": "suppression of the 11 genes in LNCaP Abi-resistant cells compared to parental cells", "setting": "[3]; LNCaP AbiRes vs parental", "value": "better suppression effects"}, {"measurement": "expression of the 11 genes in PDX tumors after treatment (qRT-PCR)", "setting": "[6]", "value": "significantly downregulated"}, {"measurement": "potency relative to the other identified drugs in cytotoxicity experiments", "setting": "[7]; range of doses tested, FIG. 6", "value": "superior to others; also recorded: most potent"}]}
